Test results: patent publication US20220356163A1, “SMALL MOLECULE INHIBITORS OF Id PROTEINS” (MEMORIAL SLOAN KETTERING CANCER CENTER, priority 2019, published 2022)

Assays:
Id1 = target: T1, Id1 (Mus musculus, UniProt P20067); assay: Electrophoretic mobility shift assay (EMSA): ability of Id1 to antagonize E47 binding to DNA; assay type: biochemical; details: comparison between compounds
T1 construct: in the presence or absence of purified full-length Id1; made in house; host or cells: bacteria (Id1: Rosetta 2 (DE3))
Experimental: Electrophoretic mobility shift assays. To test the activity of compounds identified in the in silico screen, full-length E47 was purified from bacteria and mixed with a P^32 labeled E-box sequence derived from the muscle creatine kinase (MCK) enhancer, BSA, DTT, poly dI-dC, salmon sperm, and HeLa nuclear extract, in the presence or absence of purified full-length Id1. Increasing concentrations of the various test compounds dissolved in DMSO or DMSO alone were added to the reaction mixes for 30 minutes, resolved on a 5% non-denaturing polyacrylamide gel, and autoradiographed. Electrophoretic mobility shift assays (EMSAs) were carried out on whole cell lysates from AGX51-treated cells and the EMSA was performed as described previously (Tournay and Benezra, Mol Cell Biol, 16: 2418-30 (1996)).
Pesce and Benezra, Mol. Cell. Biol., 13, 7874-7880 (1993). An in silico screen of 2,234,000 compounds for crevice binding was performed, yielding 3,000 hits that were pared for drug-like properties. 364 candidates emerged and were tested for their capacity to inhibit the ability of Id1 to antagonize E47 binding to DNA by EMSAs as previously described (Benezra, 1994). […] This anti-Id1 activity was most likely due to the perturbation of the Id1-E47 interaction but other explanations, such as the binding of an Id1-E47 complex to DNA in the presence of compound, are possible. […]

ID1, ID2, ID3 and ID4 = assay: Western blot for ID1-ID4 in HCT116 cells; assay type: cell-based; details: 40 μM, 0-48 hours
Experimental: (§1) Immunoblotting. For immunoblotting, cells were collected by trypsinization, washed with PBS and lysed in homogenization buffer (0.3 M sucrose, 10 mM Tris (pH 8.0), 400 mM sodium chloride, 3 mM magnesium chloride, 0.5% NP40/IGEPAL, 100 μg/mL Aprotinin+Protease inhibitor cocktail (Roche #11 836 153 001). Proteins were separated by SDS-PAGE, transferred to a membrane (LI-COR), probed with primary antibodies overnight at 4° C., and probed with secondary antibodies (LI-COR) for 1-2 hours at room temperature. Proteins were visualized using the LI-COR Odyssey Infrared Imaging detection system. The following primary antibodies were used Id1, Id2, Id3, Id4 (195-14, 9-2-8, 17-3, 82-12, respectively, all from Biocheck), Cyclin D1 (2978, Cell Signaling), Actin (A2066, Sigma), Tubulin (T4026, Sigma). Western blot quantification was carried out using channel 700 and channel 800 intensity data from Odyssey application software version 3.0.30 (LI-COR), subtracting blank values and normalizing to Tubulin.
The activity of AGX51 was tested on primary human umbilical vein endothelial cells (HUVECs) and the HCT116 colorectal cancer cell line, two cell types with different ID1-4 expression profiles. […] The effects of AGX51 on ID3 loss in HUVECs was diminished in the 20-40 μM range compared with ID1, consistent with the weaker perturbation observed in the CD spectra.

HUVEC = HUVEC growth, cell cycle and Cyclin D1; assay type: cell-based, human
Experimental: as §1
Cell viability assays. Cell lines were seeded in a 96 well plate (5000 cells per well). After overnight incubation, cells were treated with AGX51 and incubated for 24 hours then MTT reagent (5 mg/mL) was added per well and the cells were incubated for four hours. Following incubation, media was aspirated and 200 μL DMSO was added per well. Absorbance was then measured at 570 nm using a plate reader (Synergy 2, BioTek). Cell growth profiles were determined by seeding 38,000 cells in a 24-well plate, in triplicate for each time point, and counting the cells on days 1, 3 and 5 after seeding, using trypan blue exclusion of dead cells.
Cell cycle analysis. […] For cell cycle analysis cells were centrifuged 1000 rpm for 5 minutes, washed with 1×PBS and then resuspended in 0.5 mL PI/RNase staining buffer (550825, BD Biosciences), incubated for 15 minutes at room temperature and analyzed by flow cytometry (LSR II).

[1] = 14-day toxicity study, i.p.; assay type: in vivo; details: 60 mg/kg bid i.p., 14 days
Experimental: Toxicity analyses. To assess for toxicity, female athymic nude mice (Envigo), age 6-8 weeks, were dosed i.p. with either a control vehicle (70% DMSO in water) or AGX51 at 60 mg/kg twice daily for 14 consecutive days. Mice were sacrificed 24 hours after the last test administration. Gross and complete necropsy, along with clinical pathology analysis was conducted on all mice. Clinical Chemistry parameters measured were: BUN, Creatine, ALP, ALT, AST, GGT, Bilirubin, Total Protein, Albumin, Globulin, Phosphorus, Glucose, Cholesterol, Phosphorus, Calcium, Sodium, Potassium, Chloride. Hematology parameters measured were: white blood cells (lymphocytes, Monocytes, Eosinophils, Basophils, Neutrophils), red blood cells, Hemoglobin, Hematocrit, MCV, MCH, MCHC, RDW, Platelets. Organs/Tissues analyzed were: Lung, heart, thymus, kidneys, liver, spleen, gall bladder, pancreas, duodenum, jejunum, ileum, cecum, colon, bone marrow, femur, tibia, sternum, brain, eyes, ears, nasal and oral cavities, teeth, mesenteric and tracheal lymph nodes.

DU145 cells = assay: Prostate cancer cell morphology, growth and death; assay type: cell-based
Experimental: Prostate cancer cell lines DU145 and PC3 (in 10% BCS) will be cultured in Ham's F12 (Gibco, Carlsbad, Calif.) medium containing 10% BCS (Hyclone, Logan, Utah) and appropriate antibiotics (pen/strep, fungizaone, and gentamycin (Invitrogen Inc., Carlsbad, Calif.). All cells will be cultured at 37° C. in a fully humidified atmosphere containing 5% CO2.
At 50% confluence, the cells will be treated with either 100 μM DMSO, AGX51, or a compound of the present technology (such as AGX-A). The cell morphology and growth will be monitored daily for 1 week by microscopy for changes in morphology or cell death. Apoptosis will be determined by measuring caspase 3 and caspase 7 activities using the Caspase-Glo 3/7 Assay system from Promega (Madison, Wis.).

T1 sequence (P20067 1-148 isoform P20067-2): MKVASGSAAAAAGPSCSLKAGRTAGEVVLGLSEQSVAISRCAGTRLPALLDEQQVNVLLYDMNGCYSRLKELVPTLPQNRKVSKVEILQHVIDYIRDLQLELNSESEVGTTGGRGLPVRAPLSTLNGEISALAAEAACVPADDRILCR

With `CCC(=O)N(CCC(c1ccc2c(c1)OCO2)c1ccccc1OC)Cc1ccccc1` (racemic) [AGX51, N-(3-(benzo[d][1,3]dioxol-5-yl)-3-(2-methoxyphenyl)propyl)-N-benzylpropionamide] the “relative potency in EMSA” value (Id1) was “more potent than B”, the ID protein levels (ID1, ID2, ID3 and ID4) was “reduced levels of ID1, 1D2, ID3 and ID4” and the “Cyclin D1 levels” value (HUVEC; 0-40 μM, 24 hours) was “reduction in Cyclin D1 levels”. The cell viability (HUVEC; 20 μM) was “reduced cell viability”, the cell cycle (HUVEC; 20 μM, 24 hours) was “G0/G1 growth arrest” and the “clinical chemistry parameters and hematology” value [1] was “within normal limits”. For the same molecule, the “gross necropsy and histopathological evaluation of all major organs” value [1] was “No abnormal findings”, the weight loss [1] was “no significant weight loss” and the DU145 cell death (DU145 cells; after six days) was “lead to cell death”. The “effect on DU145 cells” value (DU145 cells; after three days) was “pronounced effect on DU145 cells”.
